Test results as given in patent US9719057B2, “Laundry detergent” (Liquid Vanity ApS, priority 2010, dated 2017).

Legend:
[1] = Critical micelle concentration by Sudan Black B absorbance at 600 nm; type: physicochemical; conditions: data not shown
Method: The critical micelle concentration is measured using Sudan Black B dissolved in the test solutions at different concentrations. Sudan Black B is dissolvable in micelles, only. A difference in the absorbance measured is thus a valid measure of the critical micelle concentration in the test solutions. Absorbance was measured using a Shimadzu UV-1800 spectrofotometer and the absorbance is measured at 600 nm. Dilutions were made in water and Sudan Black B by adding first water, then Sudan Black B and at last the test solutions to 4 ml cuvettes. The dilutions were then stirred and left for at least 6 hours at room temperature. Then the absorbance was measured.

[2] = test system: Staphylococcus aureus, ATCC 6538; assay: Biocidal effect, dosage response and synergy (reduction in CFU after exposure to biocide); type: cell-based; conditions: 9 minutes at 30° C.; for Reduction obtained in Staphylococcus Aureus: pH 6-6.5, factor of reduction in CFU
From the text: (§1) The assay is based on the requirements to chemical disinfectants and antiseptic agent with regard to a reduction in fungus and bacteria of 4 and 5 log units respectively. These requirements are stated in DS/EN 1276:1997 and DS/EN 1275:2005, respectively.
(§2) The following microorganisms were chosen for this dosage response assays: Staphylococcus aureus, ATCC 6538, representing grampositive bacteria; Escherichia coli, ATCC 11229, representing gramnegative bacteria; and Candida albicans, ATCC 2091, representing yeast fungi.
(§3) The bacterial cultures were cultivated in the growth medium TSB (Tryptic Soy Bouillon) for 24 h at 37° C. before use. Colony forming units (CFU) were determined by plating Tryptic Soy Agar (TSA).
(§4) The exposure to biocide was performed at pH 6-6.5, which was obtained by addition of 100 mM potassium phosphate buffer. To test tubes with 8 mL sterile 100 mM phosphate buffer were added 1 mL test solution (i.e. biocide solution) and 1 mL stock culture. After thorough mixing the assay mixtures were exposed to heating in water bath at 30° C. for 9 minutes. After exposure the test tubes were immediately removed from the water bath and the surviving microorganisms were determined by plating.
(§5) Reference samples were prepared by adding 1 mL sterile water instead of 1 mL test solution.
(§6) From appropriate dilutions of starting material (mixture of biocide solution, stock culture and buffer) was taken 0.1 mL onto agar plates, and the material was spread with Drigalski spatulas. The plates were incubated at 37° C. 1 day for bacteria and 2 days for yeast.
(§7) For determining CFU of the bacteria after exposure, with and without biocide, was used incubation on TSA for 24 h at 37° C. For determining CFU of Candida albicans before and after exposure was used incubation on MEA for 48 h at 37° C.
(§8) Where a large reduction in organisms was expected (test concentrations of 700 and 200 ppm) 1 mL and 0.1 mL solution, respectively, were mixed with 100 ml sterile water and filtered through a 47 mm Millipore EZ-Pak® membrane filter, mesh 0.22 μm. The filter was rinsed with 100 mL sterile water, and thereafter placed directly on the agar plate. The mixing in water and subsequent rinsing ensures that the biocide is heavily diluted and thus will not have any effect after plating. For dilutions of 100× and more, regular plating were used, as the biocide at these concentrations is considered to not provide any further reduction in the microorganisms during plating on agar.
(§9) Plates with between 20 and 500 CFU were chosen for counting. Number of CFU (colony forming units) per g or mL sample was calculated by multiplying the number of colonies per plate with the dilution and further by 10, as only 0.1 mL was used on each plate.
(§10) After incubation, CFU was determined and reduction in organisms was calculated. All tests were performed in triplicate.
(§11) The optimal biocides, Bardap-26 and Akacid Forte, found in Example 4A, were further assayed for synergistically effect. Bardap-26 and Akacid Forte was mixed in a 50:50 ratio, and the applied concentrations can be seen from Table 5. The methods and solutions were otherwise as described in example 4A herein.

[3] = test system: Escherichia coli, ATCC 11229; assay: as above; type: cell-based; conditions: 9 minutes at 30° C.; for Reduction obtained in E. coli: pH 6-6.5, factor of reduction in CFU
From the text: as §1, §2, §3, §4, §5, §6, §7, §8, §9, §10, §11

[4] = test system: Candida albicans, ATCC 2091; assay: as above; type: cell-based; conditions: 9 minutes at 30° C.; for Reduction obtained in Candida Albicans: pH 6-6.5, factor of reduction in CFU
From the text: as §1, §2
Candida albicans was cultivated on malt extract agar (MEA) for 24 h at 37° C. before use. Then the yeast cells were harvested in 0.9% saline by use of a drigalski spatula. CFU were determined by plating on MEA.
as §4, §5, §6, §7, §8, §9, §10, §11

[5] = 120 ppm active (total for mixtures)
[6] = test concentrations 40-700 ppm active

Substance: N,N-didecyl-N-methyl-poly(oxyethyl) ammonium propionate [Bardap-26]
- CMC [1]: 0.7 to 1.0 mmol/L
- Reduction obtained in Staphylococcus Aureus ([2]; 40 ppm active): ~10^2
- Reduction obtained in Staphylococcus Aureus ([2]; 80 ppm active): 10^2-10^3
- Reduction obtained in Staphylococcus Aureus [2, 5]: 10^2-10^3
- Reduction obtained in Staphylococcus Aureus ([2]; 160 ppm active): >10^7
- Reduction obtained in Staphylococcus Aureus ([2]; 200 ppm active): >10^7
- Reduction obtained in Staphylococcus Aureus ([2]; 700 ppm active): >10^7
- Effect on Staphylococcus Aureus as summarised in words [2, 6]: good effect
- Reduction obtained in E. coli ([3]; 40 ppm active): ~10^4
- Reduction obtained in E. coli ([3]; 80 ppm active): ~10^4
- Reduction obtained in E. coli [3, 5]: 10^4-10^5
- Reduction obtained in E. coli ([3]; 160 ppm active): >10^7
- Reduction obtained in E. coli ([3]; 200 ppm active): >10^7
- Reduction obtained in E. coli ([3]; 700 ppm active): >10^7
- Effect on E. coli as summarised in words [3, 6]: good effect
- Reduction obtained in Candida Albicans ([4]; 40 ppm active): No reduction
- Reduction obtained in Candida Albicans ([4]; 80 ppm active): 10^2-10^3
- Reduction obtained in Candida Albicans [4, 5]: ~10^3
- Reduction obtained in Candida Albicans ([4]; 160 ppm active): ~10^4
- Reduction obtained in Candida Albicans ([4]; 200 ppm active): ~10^4
- Reduction obtained in Candida Albicans ([4]; 700 ppm active): 10^4-10^5
- Reduction of Candida Albicans ([4]; concentration not given): 10^4
- Effect on Candida Albicans as summarised in words [4, 6]: good effect
